Consider two compounds from ChEMBL document CHEMBL3886649, “Compounds and compositions for inhibiting the activity of ABL1, ABL2 and BCR-ABL1” (2016).

The target in this assay is Tyrosine-protein kinase ABL1 (Homo sapiens, UniProt P00519). Description: Radiometric Filter-Binding Assay: For determination of ABL kinase activity, the radiometric filter-binding assay was used. The assay was performed by mixing 10 μL of the compound pre-diluted with 10 μL of ATP ([…] with 0.1 μCi [γ-33P]-ATP) with the phospho-acceptor peptide poly[Ala6Glu2LysHBr5Tyr1]=polyAEKY) in 20 mM Tris/HCl pH 7.5, 1 mM DTT, 10 mM MgCl2, 0.01 mM Na3VO4, 50 mM NaCl. 10 μL ….
Sequence of Tyrosine-protein kinase ABL1 (P00519 whole entry): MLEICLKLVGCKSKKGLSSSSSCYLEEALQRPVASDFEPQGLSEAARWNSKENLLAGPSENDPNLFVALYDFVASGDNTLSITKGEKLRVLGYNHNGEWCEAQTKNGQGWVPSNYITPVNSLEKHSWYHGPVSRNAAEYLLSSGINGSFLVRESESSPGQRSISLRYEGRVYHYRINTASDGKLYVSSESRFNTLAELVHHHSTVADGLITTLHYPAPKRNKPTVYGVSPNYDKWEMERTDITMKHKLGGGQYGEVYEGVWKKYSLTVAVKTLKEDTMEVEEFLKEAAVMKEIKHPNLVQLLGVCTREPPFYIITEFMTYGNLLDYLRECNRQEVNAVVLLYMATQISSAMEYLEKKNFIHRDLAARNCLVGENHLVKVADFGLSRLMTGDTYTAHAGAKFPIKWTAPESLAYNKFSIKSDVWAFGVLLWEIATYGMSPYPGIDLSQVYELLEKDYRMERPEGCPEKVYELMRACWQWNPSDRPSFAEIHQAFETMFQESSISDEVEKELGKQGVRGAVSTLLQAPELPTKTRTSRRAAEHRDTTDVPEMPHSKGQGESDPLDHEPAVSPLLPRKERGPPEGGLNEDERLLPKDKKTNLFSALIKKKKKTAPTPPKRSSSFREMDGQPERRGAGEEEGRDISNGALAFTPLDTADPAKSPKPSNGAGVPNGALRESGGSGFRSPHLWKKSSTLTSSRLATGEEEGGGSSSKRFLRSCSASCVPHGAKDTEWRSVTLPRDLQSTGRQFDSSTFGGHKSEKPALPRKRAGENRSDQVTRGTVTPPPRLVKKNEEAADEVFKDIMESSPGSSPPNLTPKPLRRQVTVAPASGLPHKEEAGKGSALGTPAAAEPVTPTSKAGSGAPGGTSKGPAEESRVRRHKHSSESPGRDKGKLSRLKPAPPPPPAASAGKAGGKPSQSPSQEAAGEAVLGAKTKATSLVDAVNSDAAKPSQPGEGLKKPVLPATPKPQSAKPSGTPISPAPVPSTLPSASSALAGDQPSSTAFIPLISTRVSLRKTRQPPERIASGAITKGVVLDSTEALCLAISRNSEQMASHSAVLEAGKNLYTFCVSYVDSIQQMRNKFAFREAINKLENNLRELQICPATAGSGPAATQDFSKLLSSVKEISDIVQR

Description: Radiometric Filter-Binding Assay: For determination of ABL kinase activity, the radiometric filter-binding assay was used. […] 10 μL of enzyme (ranging between 5 nM to 20 nM) was added to initiate the reaction. Pre-incubation of enzyme with compounds (when stated) was performed by exposing the enzyme to compounds prior to addition of the substrate mixture (ATP and/or peptide substrate). […] Filter-plates were washed 3× with 0.5% H3PO4, followed by addition of 30 μL scintillation cocktail (Microscint, Perkin Elmer) per well and then analysed in a TopCount NXT scintillation counter (Perkin Elmer).

Usually IC50 stands for the concentration needed to halve the response being measured. A low value points to inhibition by little substance. `O=C(Nc1ccc(CC(F)(F)F)cc1)c1cccc(-c2cncnc2)c1`: the IC50 came to 233 nM. With `O=C(Nc1ccc(OC(F)(F)F)cc1)c1cnc(C2CCOCC2)c(-c2cncnc2)c1` the figure was 3 nM.
